These results are taken from patent publication US12344597B2, “Alkoxy-substituted pyridinyl derivatives as LPA1 receptor antagonists and their use in the treatment of fibrosis” (IDORSIA PHARMACEUTICALS LTD, priority 2018, dated 2025).

Where a name gives a salt, the structure may show the parent alone.

Sequence of human LPA1 receptor (Q92633 whole entry): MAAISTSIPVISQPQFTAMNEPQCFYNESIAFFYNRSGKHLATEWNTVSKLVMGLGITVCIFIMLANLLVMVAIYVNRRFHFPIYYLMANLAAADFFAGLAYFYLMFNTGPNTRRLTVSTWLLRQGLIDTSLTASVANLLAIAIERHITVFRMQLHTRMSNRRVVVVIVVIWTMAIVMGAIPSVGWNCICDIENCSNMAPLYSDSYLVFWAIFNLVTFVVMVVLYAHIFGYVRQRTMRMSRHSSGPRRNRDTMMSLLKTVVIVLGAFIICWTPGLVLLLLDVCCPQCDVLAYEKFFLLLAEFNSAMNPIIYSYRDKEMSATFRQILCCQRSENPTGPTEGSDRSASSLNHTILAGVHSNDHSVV

This experiment deals with human LPA1 receptor (Homo sapiens (Human), UniProt Q92633). Put plainly: Beta-arrestin recruitment assay to determine IC50 values for human LPAR1. Format: cell-based. Particulars: antagonist mode, Tango EDG2-bla U2OS cells, LPA 18:1 500 nM final. The source says:
Beta-Arrestin Recruitment Assay to Determine IC50 Values for Human LPAR1
The Tango™ EDG2-bla U2OS cells are obtained from Invitrogen. These cells contain the human LPA1 receptor cDNA linked to a TEV protease site and a Gal4-VP16 transcription factor integrated into the Tango™ GPCR-bla U2OS parental cell line. This parental cell line stably expresses a beta-arrestin/TEV protease fusion protein and the beta-lactamase (bla) reporter gene under the control of a UAS response element. Upon LPA (agonist) binding, LPA1 receptor gets activated, leading to arrestin-protease recruitment and proteolytic release of the transcription factor: The transcription factor then regulates transcription of a beta-lactamase reporter construct, which is measured upon addition of the live-cell substrate.
10′000 Tango™ EDG2-bla U2OS cells are seeded in a 384-well black with clear bottom plate in 30 μl Freestyle 293 Expression Medium (Invitrogen) and incubated for 20 h at 37° C., 5% CO2. […] IC50 is the concentration of antagonist inhibiting 50% of the maximal response.
“1-((3-((3-(difluoromethoxy)-5-methylpyridin-2-yl)carbamoyl)-3-(2-isopropylphenyl)azetidine-1-carbonyl)oxy)cyclopropane-1-carboxylic acid [Ex 83-3]” registered an IC50 of 76 nM.

As to “2-(2-(3-((2-(difluoromethoxy)-6-methylpyridin-3-yl)carbamoyl)-3-(2-isopropylphenyl)azetidin-1-yl)ethoxy)-2-methylpropanoic acid [Ex 40]”, inhibition was half-maximal at 29 nM (IC50).

Regarding “5-(3-((2-(difluoromethoxy)-6-methylpyridin-3-yl)carbamoyl)-3-(2-isopropylphenyl)azetidin-1-yl)-2-methylpentan-2-yl acetate [Ex 11-65]”, the concentration for half-maximal inhibition (IC50) is 315 nM.

With `Cc1ccc(NC(=O)C2(c3ccccc3C(C)C)CNC2)c(OC(C)C)n1` [Ex 2, N-(2-isopropoxy-6-methylpyridin-3-yl)-3-(2-isopropylphenyl)azetidine-3-carboxamide], the midpoint of inhibition, the IC50, lay at 320 nM.

On to `Cc1ccc(NC(=O)C2(c3ccccc3C(C)C)CCNCC2)c(OC(F)F)n1` [Ex 4, N-(2-(difluoromethoxy)-6-methylpyridin-3-yl)-4-(2-isopropylphenyl)piperidine-4-carboxamide], for which 8 nM corresponded to half-maximal inhibition (IC50).

For `Cc1ccc(NC(=O)C2(c3ccccc3C(C)C)CCN(C(=O)OC(C)(C)C)CC2)c(OC(F)F)n1` [Ex 4-1, tert-butyl 4-((2-(difluoromethoxy)-6-methylpyridin-3-yl)carbamoyl)-4-(2-isopropylphenyl)piperidine-1-carboxylate], the IC50 worked out at 19 nM.

As for `COc1nc(Cl)ccc1NC(=O)C1(c2ccccc2C(C)C)CNC1` [Ex 5, N-(6-chloro-2-methoxypyridin-3-yl)-3-(2-isopropylphenyl)azetidine-3-carboxamide], it took 594 nM to reach half-maximal inhibition (IC50).

Regarding `COc1ccc(NC(=O)C2(c3ccccc3C(C)C)CNC2)c(OC)n1` [Ex 6, N-(2,6-dimethoxypyridin-3-yl)-3-(2-isopropylphenyl)azetidine-3-carboxamide hydrochloride], 84 nM corresponded to half-maximal inhibition (IC50).

Take `COc1ccc(NC(=O)C2(c3ccccc3C(C)C)CN(C(=O)OC(C)(C)C)C2)c(OC)n1` [Ex 6-1, tert-butyl 3-((2,6-dimethoxypyridin-3-yl)carbamoyl)-3-(2-isopropylphenyl)azetidine-1-carboxylate]: the IC50 came to 605 nM.

The compound `CC(C)c1ccccc1C1(C(=O)Nc2cccnc2OC(F)F)CNC1` [Ex 7, N-(2-(difluoromethoxy)pyridin-3-yl)-3-(2-isopropylphenyl)azetidine-3-carboxamide hydrochloride] displayed an IC50 of 413 nM.

The compound `CC(C)c1ccccc1C1(C(=O)Nc2cc(F)cnc2OC(F)F)CNC1` [Ex 8, N-(2-(difluoromethoxy)-5-fluoropyridin-3-yl)-3-(2-isopropylphenyl)azetidine-3-carboxamide] registered an IC50 of 338 nM.

Consider `Cc1ccc(NC(=O)C2(c3ccccc3C(C)C)CCNC2)c(OC(F)F)n1` (centres unmarked) [Ex 10, N-(2-(difluoromethoxy)-6-methylpyridin-3-yl)-3-(2-isopropylphenyl)pyrrolidine-3-carboxamide], for which it took 7 nM to reach half-maximal inhibition (IC50).

Consider `Cc1ccc(NC(=O)C2(c3ccccc3C(C)C)CN(CCO)C2)c(OC(F)F)n1` [Ex 11-2, N-(2-(difluoromethoxy)-6-methylpyridin-3-yl)-1-(2-hydroxyethyl)-3-(2-isopropylphenyl)azetidine-3-carboxamide], for which the IC50 turned out to be 5 nM.

The compound `Cc1ccc(NC(=O)C2(c3ccccc3C(C)C)CCN(CCO)CC2)c(OC(F)F)n1` [Ex 11-3, N-(2-(difluoromethoxy)-6-methylpyridin-3-yl)-1-(2-hydroxyethyl)-4-(2-isopropylphenyl)piperidine-4-carboxamide] showed an IC50 of 32 nM.

`Cc1ccc(NC(=O)C2(c3ccccc3C(C)C)CN(CC3COC3)C2)c(OC(F)F)n1` [Ex 11-5, N-(2-(difluoromethoxy)-6-methylpyridin-3-yl)-3-(2-isopropylphenyl)-1-(oxetan-3-ylmethyl)azetidine-3-carboxamide]: the IC50 amounted to 29 nM.

On to `Cc1ccc(NC(=O)C2(c3ccccc3C(C)C)CN(C#N)C2)c(OC(F)F)n1` [Ex 11-6, 1-cyano-N-(2-(difluoromethoxy)-6-methylpyridin-3-yl)-3-(2-isopropylphenyl)azetidine-3-carboxamide], for which the IC50 came to 11 nM.

In turn, `Cc1ccc(NC(=O)C2(c3ccccc3C(C)C)CN(Cc3nnn[nH]3)C2)c(OC(F)F)n1` [Ex 11-8, 1-((1H-tetrazol-5-yl)methyl)-N-(2-(difluoromethoxy)-6-methylpyridin-3-yl)-3-(2-isopropylphenyl)azetidine-3-carboxamide] showed an IC50 of 55 nM.

`Cc1ccc(NC(=O)C2(c3ccccc3C(C)C)CN(CCC(C)(C)O)C2)c(OC(F)F)n1` [Ex 11-9, N-(2-(difluoromethoxy)-6-methylpyridin-3-yl)-1-(3-hydroxy-3-methylbutyl)-3-(2-isopropylphenyl)azetidine-3-carboxamide] registered an IC50 of 14 nM.

In turn, `Cc1ccc(NC(=O)C2(c3ccccc3C(C)C)CN(CCC3(O)CC3)C2)c(OC(F)F)n1` [Ex 11-10, N-(2-(difluoromethoxy)-6-methylpyridin-3-yl)-1-(2-(1-hydroxycyclopropyl)ethyl)-3-(2-isopropylphenyl)azetidine-3-carboxamide] showed an IC50 of 12 nM.

In the case of `Cc1ccc(NC(=O)C2(c3ccccc3C(C)C)CN(CC(C)N)C2)c(OC(F)F)n1` (centres unmarked) [Ex 11-11, 1-(2-aminopropyl)-N-(2-(difluoromethoxy)-6-methylpyridin-3-yl)-3-(2-isopropylphenyl)azetidine-3-carboxamide], 5 nM corresponded to half-maximal inhibition (IC50).

In turn, `Cc1ccc(NC(=O)C2(c3ccccc3C(C)C)CN(CC(=O)O)C2)c(OC(F)F)n1` [Ex 11-12, 2-(3-((2-(difluoromethoxy)-6-methylpyridin-3-yl)carbamoyl)-3-(2-isopropylphenyl)azetidin-1-yl)acetic acid] had an IC50 of 22 nM.

Take `CCOC(=O)CCN1CC(C(=O)Nc2ccc(C)nc2OC(F)F)(c2ccccc2C(C)C)C1` [Ex 11-13, ethyl 3-(3-((2-(difluoromethoxy)-6-methylpyridin-3-yl)carbamoyl)-3-(2-isopropylphenyl)azetidin-1-yl)propanoate]: inhibition was half-maximal at 16 nM (IC50).

`Cc1ccc(NC(=O)C2(c3ccccc3C(C)C)CN(CC(N)=O)C2)c(OC(F)F)n1` [Ex 11-15, 1-(2-amino-2-oxoethyl)-N-(2-(difluoromethoxy)-6-methylpyridin-3-yl)-3-(2-isopropylphenyl)azetidine-3-carboxamide] displayed an IC50 of 22 nM.

The compound `Cc1ccc(NC(=O)C2(c3ccccc3C(C)C)CN(CC(C)(C)CO)C2)c(OC(F)F)n1` [Ex 11-17, N-(2-(difluoromethoxy)-6-methylpyridin-3-yl)-1-(3-hydroxy-2,2-dimethylpropyl)-3-(2-isopropylphenyl)azetidine-3-carboxamide] had an IC50 of 48 nM.

In the case of `Cc1ccc(NC(=O)C2(c3ccccc3C(C)C)CCN(C[C@@H](O)CO)CC2)c(OC(F)F)n1` [Ex 11-19, (R)-N-(2-(difluoromethoxy)-6-methylpyridin-3-yl)-1-(2,3-dihydroxypropyl)-4-(2-isopropylphenyl)piperidine-4-carboxamide], the IC50 stood at 14 nM.

Turning to `Cc1ccc(NC(=O)C2(c3ccccc3C(C)C)CN(C3COC3)C2)c(OC(F)F)n1` [Ex 11-20, N-(2-(difluoromethoxy)-6-methylpyridin-3-yl)-3-(2-isopropylphenyl)-1-(oxetan-3-yl)azetidine-3-carboxamide], the IC50 is 6 nM.

Take `Cc1ccc(NC(=O)C2(c3ccccc3C(C)C)CN(Cc3coc(C)n3)C2)c(OC(F)F)n1` [Ex 11-21, N-(2-(difluoromethoxy)-6-methylpyridin-3-yl)-3-(2-isopropylphenyl)-1-((2-methyloxazol-4-yl)methyl)azetidine-3-carboxamide]: the IC50 was 60 nM.

`Cc1ccc(NC(=O)C2(c3ccccc3C(C)C)CN(Cc3ccnn3C)C2)c(OC(F)F)n1` [Ex 11-22, N-(2-(difluoromethoxy)-6-methylpyridin-3-yl)-3-(2-isopropylphenyl)-1-((1-methyl-1H-pyrazol-5-yl)methyl)azetidine-3-carboxamide] registered an IC50 of 108 nM.

Take `Cc1ccc(NC(=O)C2(c3ccccc3C(C)C)CN(Cc3cnn(C)c3)C2)c(OC(F)F)n1` [Ex 11-23, N-(2-(difluoromethoxy)-6-methylpyridin-3-yl)-3-(2-isopropylphenyl)-1-((1-methyl-1H-pyrazol-4-yl)methyl)azetidine-3-carboxamide]: the IC50 stood at 775 nM.

`COC(=O)C(C)(C)CN1CC(C(=O)Nc2ccc(C)nc2OC(F)F)(c2ccccc2C(C)C)C1` [Ex 11-24, methyl 3-(3-((2-(difluoromethoxy)-6-methylpyridin-3-yl)carbamoyl)-3-(2-isopropylphenyl)azetidin-1-yl)-2,2-dimethylpropanoate]: the IC50 is 280 nM.

The compound `Cc1ccc(NC(=O)C2(c3ccccc3C(C)C)CN(CC(C)(C)C(=O)O)C2)c(OC(F)F)n1` [Ex 11-25, 3-(3-((2-(difluoromethoxy)-6-methylpyridin-3-yl)carbamoyl)-3-(2-isopropylphenyl)azetidin-1-yl)-2,2-dimethylpropanoic acid] yielded an IC50 of 20 nM.

`COC(=O)C1(CN2CC(C(=O)Nc3ccc(C)nc3OC(F)F)(c3ccccc3C(C)C)C2)CC1` [Ex 11-26, methyl 1-((3-((2-(difluoromethoxy)-6-methylpyridin-3-yl)carbamoyl)-3-(2-isopropylphenyl)azetidin-1-yl)methyl)cyclopropane-1-carboxylate] displayed an IC50 of 400 nM.

Usually IC50 stands for the concentration that gives 50% inhibition. A higher IC50 goes with lower potency.
